According to PubChem BioAssay (NCI):
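Following 48 hours of exposure in 96-well plates, responses at five concentrations were used to interpolate endpoints linearly. Definition used: TGI = concentration required for complete inhibition of growth.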

Key:
Assay in all cases: NCI tumour cell line growth inhibition, 48 h
[1] = tested on: OVCAR-4 ovarian
[2] = tested on: NCI-H522 lung
[3] = tested on: SK-MEL-2 melanoma
[4] = tested on: HS 578T breast
[5] = tested on: OVCAR-8 ovarian
[6] = tested on: NCI-H460 lung
[7] = tested on: ACHN renal
[8] = tested on: SF-268 CNS
[9] = tested on: M14 melanoma
[10] = tested on: PC-3 prostate

With `CC(=O)Nc1sc(Br)cc1S(=O)(=O)c1ccc(Cl)cc1` the TGI [1] was 64.5 µM, the TGI [2] was 47.6 µM and the TGI [3] was > 100 µM. For the same compound, the TGI [4] was 56.3 µM, the TGI [5] was 68.7 µM and the TGI [6] was > 100 µM. The TGI [7] was > 100 µM, the TGI [8] was > 100 µM and the TGI [9] was 38 µM. The TGI [10] was 43.1 µM.
In the case of `C=C(Cl)C(=CCl)CCC(Br)C(C)(C)Cl` (mixture of isomers), the TGI [1] is reported as > 10 µM, the TGI [2] is reported as > 10 µM and the TGI [3] is reported as > 10 µM. For the same compound, the TGI [4] was > 10 µM, the TGI [5] was > 10 µM and the TGI [6] was > 10 µM. For the same compound, the TGI [7] was > 10 µM, the TGI [8] was > 10 µM and the TGI [9] was > 10 µM. For the same compound, the TGI [10] was > 10 µM.
With `CN(CCSCCN(C)C(=O)OC(C)(C)C)C(=O)OC(C)(C)C` the TGI [1] was > 100 µM, the TGI [2] was > 100 µM and the TGI [3] was > 100 µM. For the same compound, the TGI [4] was > 100 µM, the TGI [5] was > 100 µM and the TGI [6] was > 100 µM. For the same compound, the TGI [7] was > 100 µM, the TGI [8] was > 100 µM and the TGI [9] was > 100 µM. For the same compound, the TGI [10] was > 100 µM.
In the case of `CC(C)(C)OC(=O)NC1CCCCC1NC(=O)C(=O)NC1CCCCC1NC(=O)OC(C)(C)C` (stereo not given), the TGI [1] is reported as > 100 µM, the TGI [2] is reported as > 100 µM and the TGI [3] is reported as > 100 µM. For the same compound, the TGI [4] was 57.1 µM, the TGI [5] was > 100 µM and the TGI [6] was > 100 µM. For the same compound, the TGI [7] was > 100 µM, the TGI [8] was > 100 µM and the TGI [9] was > 100 µM. For the same compound, the TGI [10] was > 100 µM.
In the case of `CN(C)c1ccc(/C=c2/c3ccccc3n3c2c2c([n+]3C)CCCC2)cc1`, the TGI [1] is reported as 4.58 µM, the TGI [2] is reported as 0.687 µM and the TGI [3] is reported as 0.59 µM. For the same compound, the TGI [4] was 7.21 µM, the TGI [5] was 2.49 µM and the TGI [6] was 0.758 µM. For the same compound, the TGI [7] was 1.99 µM, the TGI [8] was 1.6 µM and the TGI [9] was 1.5 µM. The TGI [10] was 2.06 µM.
In the case of `Fc1ccc2c(c1)nc1n2C(c2c(Cl)cccc2Cl)SC1` (stereo not given), the TGI [1] is reported as 29.7 µM, the TGI [2] is reported as 28.7 µM and the TGI [3] is reported as 29.7 µM. The TGI [4] was 34.7 µM, the TGI [5] was 29 µM and the TGI [6] was 20.8 µM. It also gave a TGI [7] of 30.7 µM, a TGI [8] of 29.6 µM and a TGI [9] of 29.9 µM. It also gave a TGI [10] of 28.3 µM.
